According to US20230002357A1, “7-PYRIMIDINE-2-YL-OXY-INDAZOLE DERIVATIVES AND THEIR USE AS HERBICIDES” (SYNGENTA CROP PROTECTION AG, priority 2019, published 2023):

Assays:
Format in all cases: in vivo
Conditions in all cases: 250 g/ha, evaluated after 13 days
[1] = tested on: Amaranthus retoflexus (AMARE); test: Post-emergence Test, glasshouse, AMARE
Experimental: (§1) Seeds of a variety of test species are sown in standard soil in pots Amaranthus retoflexus (AMARE), Echinochloa crus-galli (ECHCG), Setaria faberi (SETFA)). After cultivation for one day (pre-emergence) or after 8 days cultivation (post-emergence) under controlled conditions in a glasshouse (at 24/16° C., day/night; 14 hours light; 65% humidity), the plants are sprayed with an aqueous spray solution derived from the formulation of the technical active ingredient in acetone/water (50:50) solution containing 0.5% Tween™ 20 (polyoxyethelyene sorbitan monolaurate, CAS RN 9005-64-5). Compounds are applied at 250 g/ha unless otherwise stated. The test plants are then grown in a glasshouse under controlled conditions in a glasshouse (at 24/16° C., day/night; 14 hours light; 65% humidity) and watered twice daily. After 13 days for pre- and post-emergence, the test is evaluated for the percentage damage caused to the plant. The biological activities are shown in the following table on a five-point scale (5=81-100%; 4=61-80%; 3=41-60%; 2=21-40%; 1=0-20%).

ABUTH [2] = test: Post-emergence Test, glasshouse, ABUTH
Experimental: as §1

Setaria faberi (SETFA) [3] = test: Post-emergence Test, glasshouse, SETFA
Experimental: as §1

[4] = tested on: Echinochloa crus-galli (ECHCG); test: Post-emergence Test, glasshouse, ECHCG
Experimental: as §1

IPOHE [5] = test: Post-emergence Test, glasshouse, IPOHE
Experimental: as §1

[6] = tested on: Amaranthus retoflexus (AMARE); test: Pre-emergence Test, glasshouse, AMARE
Experimental: as §1

ABUTH [7] = test: Pre-emergence Test, glasshouse, ABUTH
Experimental: as §1

Setaria faberi (SETFA) [8] = test: Pre-emergence Test, glasshouse, SETFA
Experimental: as §1

[9] = tested on: Echinochloa crus-galli (ECHCG); test: Pre-emergence Test, glasshouse, ECHCG
Experimental: as §1

IPOHE [10] = test: Pre-emergence Test, glasshouse, IPOHE
Experimental: as §1

Row | Compound | percentage damage caused to the plant, five-point scale, AMARE [1] | percentage damage caused to the plant, five-point scale, ABUTH (ABUTH [2]) | percentage damage caused to the plant, five-point scale, SETFA (Setaria faberi (SETFA) [3]) | percentage damage caused to the plant, five-point scale, ECHCG [4] | percentage damage caused to the plant, five-point scale, IPOHE (IPOHE [5]) | percentage damage caused to the plant, five-point scale, AMARE [6] | percentage damage caused to the plant, five-point scale, ABUTH (ABUTH [7]) | percentage damage caused to the plant, five-point scale, SETFA (Setaria faberi (SETFA) [8]) | percentage damage caused to the plant, five-point scale, ECHCG [9] | percentage damage caused to the plant, five-point scale, IPOHE (IPOHE [10])
1 | CC(C)=CCn1nc(Cl)c2cccc(Oc3ncc(Cl)cn3)c21 [Compound 1.067] | 4 (4=61-80%) | 3 (3=41-60%) | 3 (3=41-60%) | 3 (3=41-60%) | 2 (2=21-40%) | 3 (3=41-60%) | 2 (2=21-40%) | 4 (4=61-80%) | 3 (3=41-60%) | 1 (1=0-20%)
2 | FC(F)(F)CCCn1ncc2c(Cl)ccc(Oc3ncc(Cl)cn3)c21 [Compound 1.013, 4-chloro-7-(5-chloropyrimidin-2-yl)oxy-1-(4,4,4-trifluorobutyl)indazole] | 5 (5=81-100%) | 5 (5=81-100%) | 5 (5=81-100%) | 5 (5=81-100%) | 2 (2=21-40%) | 5 (5=81-100%) | 2 (2=21-40%) | 5 (5=81-100%) | 5 (5=81-100%) | 1 (1=0-20%)
3 | N#Cc1nn(CCCC(F)(F)F)c2c(Oc3ncc(Cl)cn3)cccc12 [Compound 1.007, 7-(5-chloropyrimidin-2-yl)oxy-1-(4,4,4-trifluorobutyl)indazole-3-carbonitrile] | 5 (5=81-100%) | 5 (5=81-100%) | 5 (5=81-100%) | 5 (5=81-100%) | 4 (4=61-80%) | 5 (5=81-100%) | 3 (3=41-60%) | 5 (5=81-100%) | 5 (5=81-100%) | 2 (2=21-40%)
4 | N#Cc1ccc2cnn(CCCC(F)(F)F)c2c1Oc1ncc(Cl)cn1 [Compound 1.046] | 2 (2=21-40%) | 2 (2=21-40%) | 1 (1=0-20%) | 1 (1=0-20%) | 1 (1=0-20%) | 1 (1=0-20%) | 2 (2=21-40%) | 1 (1=0-20%) | 1 (1=0-20%) | 1 (1=0-20%)
5 | Fc1cc(Cl)cnc1Oc1cccc2cnn(CCCC(F)(F)F)c12 [Compound 1.002] | 2 (2=21-40%) | 2 (2=21-40%) | 3 (3=41-60%) | 3 (3=41-60%) | 1 (1=0-20%) | 1 (1=0-20%) | 1 (1=0-20%) | 2 (2=21-40%) | 2 (2=21-40%) | 1 (1=0-20%)
6 | Fc1cnc(Oc2cccc3c(C(F)(F)F)nn(CCCC(F)(F)F)c23)nc1 [Compound 1.071] | 5 (5=81-100%) | 5 (5=81-100%) | 4 (4=61-80%) | 4 (4=61-80%) | 4 (4=61-80%) | 5 (5=81-100%) | 3 (3=41-60%) | 5 (5=81-100%) | 5 (5=81-100%) | 2 (2=21-40%)
7 | FC(F)(F)CCn1ncc2cccc(Oc3ncc(Cl)cn3)c21 [Compound 1.042] | 4 (4=61-80%) | 4 (4=61-80%) | 4 (4=61-80%) | 4 (4=61-80%) | 2 (2=21-40%) | 5 (5=81-100%) | 4 (4=61-80%) | 5 (5=81-100%) | 5 (5=81-100%) | 1 (1=0-20%)
8 | FC(F)(F)CCCn1ccc2cccc(Oc3ncc(Cl)cn3)c21 [Compound 1.003] | 3 (3=41-60%) | 2 (2=21-40%) | 1 (1=0-20%) | 1 (1=0-20%) | 2 (2=21-40%) | 1 (1=0-20%) | 1 (1=0-20%) | 1 (1=0-20%) | 1 (1=0-20%) | 1 (1=0-20%)
9 | N#Cc1cc(Cl)cnc1Oc1cccc2c(Cl)nn(CCCC(F)(F)F)c12 [Compound 1.008] | 5 (5=81-100%) | 4 (4=61-80%) | 4 (4=61-80%) | 4 (4=61-80%) | 2 (2=21-40%) | 4 (4=61-80%) | 2 (2=21-40%) | 4 (4=61-80%) | 4 (4=61-80%) | 1 (1=0-20%)
10 | Fc1cc(Cl)cnc1Oc1ccc(Cl)c2cnn(CCCC(F)(F)F)c12 [Compound 1.031] | 4 (4=61-80%) | 1 (1=0-20%) | 1 (1=0-20%) | 1 (1=0-20%) | 1 (1=0-20%) | 1 (1=0-20%) | 1 (1=0-20%) | 1 (1=0-20%) | 1 (1=0-20%) | 1 (1=0-20%)
